Measurements as given in paper PMC12363935, “Unc-51 Like Kinase 3 (ULK3) is essential for autophagy and cell survival in multiple myeloma” (Research Square, 2025).

Legend:
[1] = test system: autophagy proteins in U266 MM cells; experiment: Immunoblot densitometry of autophagy proteins; assay type: cell-based, Human; settings: U266, 6h, MA9-060 1μM, JQ1 10μM, CQ 1μM
Protocol: Figure 3. Anti-myeloma activity of the MA9–060 autophagy inhibitor. A. Chemical structure of the autophagy inhibitor MA9–060. […] Chloroquine (CQ) (1μM) served as a positive control for autophagy inhibition. C. […] Hoechst 33342 dye appears here as the nuclear blue staining (Multiple comparisons ANOVA, p <0.0001).
157 5872S). Protein concentration was quantified by Thermo Scientific™ Pierce™ BCA™ Protein
30 μg protein was loaded to 10%-15% gel and ran at
159 100V for 2 hours. Later protein was transferred to PVDF membrane and blocked with 5% skimmed
160 milk in TBST (10 mM Tris/HCl pH8.0, 0.12M NaCl, 0.1% Tween 20) containing 5% BSA [8] for
163 at 4°C overnight. Membranes were washed 3 times,10 minutes with TBS. Then incubated with
164 appropriate secondary antibodies at 1:1000 ratio in skimmed milk or 2% BSA. The membranes
165 were washed again 3 times for 10 minutes with TBST. ECL reagents were added to the membrane
166 and blot was developed by LICOR Imaging Studio.
167 All immunoblotting assays were performed at least in three replicates and representative
168 images are shown. Commercially available antibodies and their dilutions are listed in
169 Supplementary Table 5. Immunoblotting images were acquired and quantified using LICOR
170 Image Studio Quant software. […]

[2] = test system: co-cultured stromal cells; experiment: EMMA ex vivo platform, co-cultured stroma; assay type: cell-based; settings: highest concentration 20 μM
Protocol: Figure 7. MA9–060 treatment compromises the survival of patient NDMM and RRMM cells ex vivo. A. Representative viability (live cell imaging) response of CD138^+ cells from NDMM patient (Pt620) cultured and tested in autologous stromal microenvironment in EMMA’s ex vivo platform, exposed to three different concentrations of MA9–060 (0.7, 2.2, 6.7 μM). […] (not shown here – 20 μM). B. Ex vivo EMMA platform assay to quantify the chemosensitivity of primary CD138^+ MM cells plated in a collagen matrix with bone marrow stroma and patient plasma. […] C. […] H. Immunoblot showing levels of indicated proteins in CD138^+ cells isolated from RRMM patients (Pt971, Pt1050). Pt1050 CD138^+ cells were assessed for ULK3-mediated autophagy related proteins (ATGs), following treatment with MA9–060 (1μM at 2 and 6 hours).
402 aspirate cells were enriched for CD138+ expression using Miltenyi (Bergisch Gladbach, Germany)
403 130-051-301 antibody-conjugated magnetic beads. MM cells (CD138+) were seeded in Corning
404 Cell BIND 384 well plates (Corning, NY) with collagen I and previously established human-
405 derived stroma, containing approximately 4000 MM cells and 1000 stromal cells. Each well was
406 filled with 80μL of RPMI 1640 media supplemented with fetal bovine serum (FBS, heat […]
422 images acquired for each well, we quantified non-destructively, and without the need to separate […]

[3] = molecular target: T1, JAK2 (Homo sapiens, UniProt O60674); experiment: Kinase profiling assay (Reaction Biology), 10-dose IC50, 10 μM ATP; assay type: biochemical; settings: NA = no activity
T1 construct: purchased Reaction Biology Corporation
T1 sequence (O60674 whole entry): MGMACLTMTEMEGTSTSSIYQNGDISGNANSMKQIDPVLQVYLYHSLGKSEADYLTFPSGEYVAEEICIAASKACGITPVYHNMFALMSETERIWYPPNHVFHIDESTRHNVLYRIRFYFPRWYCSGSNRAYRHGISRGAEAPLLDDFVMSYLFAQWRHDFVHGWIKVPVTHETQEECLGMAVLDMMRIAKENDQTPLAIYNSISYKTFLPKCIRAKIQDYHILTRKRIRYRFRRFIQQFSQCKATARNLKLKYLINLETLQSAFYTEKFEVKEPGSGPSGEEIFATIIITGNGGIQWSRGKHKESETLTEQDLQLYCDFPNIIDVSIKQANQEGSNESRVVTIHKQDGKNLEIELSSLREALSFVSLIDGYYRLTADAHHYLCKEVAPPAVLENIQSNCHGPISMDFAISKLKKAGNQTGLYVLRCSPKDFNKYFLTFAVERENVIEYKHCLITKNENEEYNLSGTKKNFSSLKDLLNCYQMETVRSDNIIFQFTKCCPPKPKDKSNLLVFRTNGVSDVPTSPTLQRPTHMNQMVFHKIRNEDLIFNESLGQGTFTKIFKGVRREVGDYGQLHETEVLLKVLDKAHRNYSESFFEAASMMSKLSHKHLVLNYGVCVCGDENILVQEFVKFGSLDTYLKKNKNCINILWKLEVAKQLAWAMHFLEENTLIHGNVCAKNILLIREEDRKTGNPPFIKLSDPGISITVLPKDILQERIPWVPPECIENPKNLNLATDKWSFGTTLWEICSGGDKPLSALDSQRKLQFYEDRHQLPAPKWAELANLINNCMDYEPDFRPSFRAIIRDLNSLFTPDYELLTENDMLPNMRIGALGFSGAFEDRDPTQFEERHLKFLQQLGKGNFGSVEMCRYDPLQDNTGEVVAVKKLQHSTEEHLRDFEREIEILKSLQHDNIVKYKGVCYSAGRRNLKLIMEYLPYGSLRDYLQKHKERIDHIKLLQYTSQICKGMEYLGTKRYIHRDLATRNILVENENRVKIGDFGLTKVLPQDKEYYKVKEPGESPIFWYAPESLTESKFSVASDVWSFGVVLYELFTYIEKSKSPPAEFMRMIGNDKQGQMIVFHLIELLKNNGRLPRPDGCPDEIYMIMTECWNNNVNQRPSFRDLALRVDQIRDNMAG
Protocol: 310 and refinement were performed with COOT [14] and Phenix.Refine to obtain a clear electron
311 density map (1Fo-Fc) for compound MA9-060, which was built into the structure near the end of
312 iterative cycles of model building and refinement. Crystal parameters, data collection statistics and
313 refinement statistics are summarized in Supplementary Fig. 4D and deposited in the protein
314 databank with PDB code 8V1M.
317 The compounds under investigation were tested by Reaction Biology Corporation against four
318 specific kinases in this study (JAK2, ULK1, ULK2, ULK3). Each compound was provided as a
319 10 mM stock solution. To facilitate dissolution, the compounds were subjected to gentle heating.
320 Subsequent testing involved the evaluation of the compounds using a 10-dose IC50 mode,
Additionally, the control compound,
Throughout these experiments, reactions were conducted using a standardized concentration
325 The data collected during these assays encompass raw data, % enzyme activity (relative to DMSO
327 activities at the highest concentration of compounds were less than 65%. The IC50 summary,
328 detailing the inhibitory concentrations of the compounds against the respective kinases, is
331 Bromodomain profiling assay
333 evaluated against Bromodomain 1 by Reaction Biology Corporation.
334 The compounds were subjected to testing using a 10-dose IC50 singlet approach, involving a 3-
335 fold serial dilution starting at 10 μM, specifically against BRD4-1. Additionally, as a benchmark,
337 dilution starting at 10 μM.
338 For ligand and detection purposes, the H4/4Ac ligand, representing the Histone H4 peptide (1-21)
339 with acetylation at lysine residues K5, K8, K12, and K16, and tagged with Biotin, was utilized.

Cc1cnc(Nc2ccc(C3CCN(C)CC3)c(F)c2)nc1Nc1ccc(Cl)c(NS(=O)(=O)C(C)(C)C)c1 [MA9060]
LC3II densitometry ([1]; CTRL 0.34): 0.10 | LC3I densitometry ([1]; CTRL 3.01): 1.78 | ULK1 densitometry ([1]; CTRL 7.21): 2.44 | ULK3 densitometry ([1]; CTRL 15.17): 3.33 | toxicity for co-cultured stromal cells [2]: no toxicity | IC50 [3]: 6.7 nM
